Reference: patent US6855309B2, “Cascade polymer bound complexing compounds, their complexes and conjugates, processes for their production, and pharmaceutical agents containing them” (Schering, AG, priority 1989, dated 2005)
Like-named read-outs stand apart in the source and are kept apart here.

Experiments:
[1] = rat, in vivo; cited from earlier work
[2] = rat, in vivo; cited from earlier work; remark: listed apart in the source
Osmolality = format: physicochemical; conditions: 0.5 mol/l at 37° C.
mice = assay: LD50 i.v. in mice; format: in vivo
[3] = Concentration-time curve in blood after intravenous administration in rats; format: in vivo; conditions: 0.2 mmol/kg intravenous
[4] = in vivo, cited from earlier work

## Albumin-GdDTPA
[1]
  dose eliminated: 20 % of the dose

## polylysine-GdDTPA
[2]
  route of elimination: eliminated unchanged by glomerular filtration via the kidneys

## CNC[C@H](O)[C@@H](O)[C@H](O)[C@H](O)CO.CNC[C@H](O)[C@@H](O)[C@H](O)[C@H](O)CO.O=C([O-])CN(CCN(CC(=O)[O-])CC(=O)O)CCN(CC(=O)[O-])CC(=O)O.[Gd+3] [Magnevist, GdDTPA/dimeglumine]
Osmolality
  Osmolality: 1.96 osmol/kg
mice
  LD50: ≤ 10 mmol/kg
[3]
  distribution space: distributed in the extracellular space
[4]; iv
  route of elimination: eliminated, upon intravenous injection, by way of the kidneys
[4]
  distribution after intravenous administration: distributed after intravenous administration uniformly between the vasal and interstitial spaces
